# According to patent US20250035641A1, “COMPOSITIONS AND METHODS RELATED TO PROTEIN LABELING” (The Chinese University of Hong Kong, priority 2023, published 2025):
# What was measured:
# HTN-CK2α [1] = biological target: T1, HTN-CK2α (Homo sapiens, UniProt P68400); assay: Immunoblot of HTN-CK2α O-GlcNAcylation in HEK293T cells co-expressing fOGT; type: cell-based; conditions: co-treated with OGTAC-1
# Source text: Ck2α is a well-studied OGT substrate.^17,25 Its Ser347 is conservatively O-GlcNAcylated and this modification was reported to affect its kinase activity.^16,17 We first co-expressed HTN-Ck2α and fOGT in HEK293T cells at different ratio and found the basal O-GlcNAcylation level of HTN-Ck2α was higher than what we detected in the case of HTN-BRD4. Therefore, a lower ratio of fOGT expression (1:100) was selected for the assessment of OGTAC potency (FIG. 9). […] The induction of specific O-GlcNAcylation on HTN-Ck2α was further confirmed by mass-shift assay. […] To validate the direct binding to both fOGT and HTN-Ck2α is critical, we exploited AP 1867 and rhodamine ligand, which bind to fOGT and HTN-Ck2α respectively, to co-treat with OGTAC-1.
# During immunoblotting study, we noticed that even for whole cell lysate (WCL), RL2 antibody band (green) and HTN-CK2α protein band (red) are perfectly overlapped and clearly distinguishable from other bands on blot (FIG. 6B). We assessed the OGTAC treatment effects by quantifying the RL2 signal that is overlapping with HTN-Ck2α in WCL, and found they are corresponding with the results achieved by IP-WB method (FIG. 6C). Therefore, we quantify the intensity of RL2 band that overlapping with HTN-CK2α level instead of IP CK2α in later study.
# For each IP reaction, 2.2×10^6 HEK293T cells were seed in 10 cm dish. After cells attached, transfection reagents and plasmids were prepared and added in DMEM. After 24 h transfection, media were replaced by fresh warm complete media with DMSO or probes. For washout study, after 4 h treatment, media with DMSO or OGTAC-4 (500 nM) were replaced by fresh media with DMSO or AP1867 (50 μM) for further incubation. After certain time of OGTACs treatment, cells were collected by cold PBS and lysed by 200 μL complete IP lysis buffer. The lysate was incubated on ice for 20 min, spun down at 14,000 RPM at 4° C. for 15 mins, and the supernatant were collected for bicinchoninic acid (BCA) assay and normalized to a final 2 mg/mL. For input, 20 μL of diluted sample was reacted with equal volume of 10 μM TMR ligand in IP lysis buffer and rotate gently at RT for 15 mins. The remaining samples were subjected to protein A/G magnetic beads (MedChemExpress, HY-K0202), which pre-binding with protein target protein antibody. For samples for LC-MS/MS or HTN-BRD4 mutant constructs. Halo-Trap Magnetic Agarose (Proteintech, otma) was used to incubate with protein lysates. After gentle rotation at 4° C. for at least 16 h, the beads were washed with IP lysis buffer and boiled in 40 μL 2×SDS-loading buffer (Biorad #1610747) for 5 mins to elute proteins from beads. Eluted samples were directly subjected into WB analysis. To get stronger signal of RL2, we used anti-mouse-HRP (Cell signaling, #7076) as secondary antibody for RL2 and anti-rabbit-DyLight 488 (Invitrogen, #35552) as secondary antibody for total target proteins.
# In general, cells (from 12 well plate) were lysed by 80 μl RIPA lysis buffer (Thermo Scientic 89901) supplemented with 20 μM OGA inhibitor (Thaimet G, Bidepharm BD571819) and 100X protease inhibitor (MedChemExpress, HY-K0010), incubated on ice for 20 min, spun down at 14,000 RPM at 4° C. for 15 mins, and the supernatant were collected for bicinchoninic acid (BCA) assay and normalizedeto a final 2 mg/mL concentration. About 30 μg of protein samples were loaded for sodium dodecyl sulfatepolyacrylamide gel electrophoresis (SDS-PADE) and blotted with indicated antibodies.
# Target sequence in this assay (P68400 with tags, fused parts or gaps): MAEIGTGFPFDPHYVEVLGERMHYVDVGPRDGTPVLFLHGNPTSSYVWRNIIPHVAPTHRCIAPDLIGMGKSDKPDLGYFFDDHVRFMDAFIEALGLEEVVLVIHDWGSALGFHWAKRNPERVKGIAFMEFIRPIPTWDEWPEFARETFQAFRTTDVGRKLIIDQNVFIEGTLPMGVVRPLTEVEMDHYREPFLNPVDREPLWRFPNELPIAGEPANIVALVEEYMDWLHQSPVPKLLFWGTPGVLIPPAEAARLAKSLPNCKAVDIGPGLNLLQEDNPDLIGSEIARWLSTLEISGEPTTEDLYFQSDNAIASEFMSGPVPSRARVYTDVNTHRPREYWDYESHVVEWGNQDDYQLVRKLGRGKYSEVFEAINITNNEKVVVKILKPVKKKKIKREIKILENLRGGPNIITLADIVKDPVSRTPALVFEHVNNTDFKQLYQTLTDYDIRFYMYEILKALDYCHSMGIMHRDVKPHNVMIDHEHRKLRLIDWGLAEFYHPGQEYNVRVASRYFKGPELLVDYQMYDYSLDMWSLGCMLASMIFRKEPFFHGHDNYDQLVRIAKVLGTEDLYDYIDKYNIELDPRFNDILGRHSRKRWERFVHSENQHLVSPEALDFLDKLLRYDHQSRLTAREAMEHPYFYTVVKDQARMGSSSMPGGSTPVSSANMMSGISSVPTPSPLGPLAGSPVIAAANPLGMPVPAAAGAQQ
# Target sequence in this assay (P62942+O15294 fused P62942:F37V partner): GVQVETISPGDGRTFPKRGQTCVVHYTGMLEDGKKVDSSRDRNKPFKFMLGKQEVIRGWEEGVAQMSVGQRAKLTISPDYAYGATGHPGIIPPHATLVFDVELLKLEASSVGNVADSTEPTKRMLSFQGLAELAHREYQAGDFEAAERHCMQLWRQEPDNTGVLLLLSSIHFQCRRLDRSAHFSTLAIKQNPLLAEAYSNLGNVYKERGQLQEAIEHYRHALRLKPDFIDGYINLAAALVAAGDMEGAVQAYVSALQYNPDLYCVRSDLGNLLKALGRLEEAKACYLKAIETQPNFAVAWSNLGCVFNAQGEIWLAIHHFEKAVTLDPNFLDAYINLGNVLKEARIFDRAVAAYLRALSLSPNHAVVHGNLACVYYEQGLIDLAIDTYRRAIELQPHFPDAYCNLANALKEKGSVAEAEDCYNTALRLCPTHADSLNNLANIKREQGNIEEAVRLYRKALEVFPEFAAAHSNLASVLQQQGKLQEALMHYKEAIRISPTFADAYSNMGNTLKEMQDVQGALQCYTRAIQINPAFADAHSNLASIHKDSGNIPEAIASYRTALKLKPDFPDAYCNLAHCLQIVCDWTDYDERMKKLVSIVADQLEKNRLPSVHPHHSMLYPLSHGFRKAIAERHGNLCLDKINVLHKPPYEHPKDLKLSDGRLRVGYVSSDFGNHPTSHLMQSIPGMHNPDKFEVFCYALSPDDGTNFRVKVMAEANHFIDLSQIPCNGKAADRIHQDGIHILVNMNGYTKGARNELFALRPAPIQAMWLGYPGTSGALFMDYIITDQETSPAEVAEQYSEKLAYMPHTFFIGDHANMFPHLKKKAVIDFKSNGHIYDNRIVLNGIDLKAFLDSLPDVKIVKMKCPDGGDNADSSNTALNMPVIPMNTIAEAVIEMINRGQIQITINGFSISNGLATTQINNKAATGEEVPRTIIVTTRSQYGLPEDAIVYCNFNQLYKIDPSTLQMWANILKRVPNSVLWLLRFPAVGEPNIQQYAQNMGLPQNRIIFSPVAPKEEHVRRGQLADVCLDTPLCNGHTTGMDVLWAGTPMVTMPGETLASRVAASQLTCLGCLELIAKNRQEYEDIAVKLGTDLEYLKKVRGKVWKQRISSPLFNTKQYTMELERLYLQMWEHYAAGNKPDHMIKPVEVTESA
# HTN-CK2α [2] = biological target: T1, HTN-CK2α; assay: O-GlcNAcylation of HTN-CK2α with 0tfOGT; type: cell-based; set-up: 0TPR(463-1046)-; expressed in transfected cells
# Experimental: FIGS. 18A and 18B: Immunoblotting analysis of the global O-GlcNAcylation inducing effect of truncated OGTAC-4 and OGTAC-1 on HTN-BRD4 and HTN-CK2α respectively. (A), O-GlcNAcylation inducing effect of OGTAC-4 is dependent on the expression of 0tfOGT. […] The quantification was conducted by immunoblot signal of probe treatment/control as the mean±s.e.m. of n=2 biologically independent experiments. TR, transfection reagent.
# Target sequence in this assay (P68400 with tags, fused parts or gaps): as the sequence (P68400 with tags, fused parts or gaps) above
# Target sequence in this assay (P62942+O15294 fused P62942:F37V partner): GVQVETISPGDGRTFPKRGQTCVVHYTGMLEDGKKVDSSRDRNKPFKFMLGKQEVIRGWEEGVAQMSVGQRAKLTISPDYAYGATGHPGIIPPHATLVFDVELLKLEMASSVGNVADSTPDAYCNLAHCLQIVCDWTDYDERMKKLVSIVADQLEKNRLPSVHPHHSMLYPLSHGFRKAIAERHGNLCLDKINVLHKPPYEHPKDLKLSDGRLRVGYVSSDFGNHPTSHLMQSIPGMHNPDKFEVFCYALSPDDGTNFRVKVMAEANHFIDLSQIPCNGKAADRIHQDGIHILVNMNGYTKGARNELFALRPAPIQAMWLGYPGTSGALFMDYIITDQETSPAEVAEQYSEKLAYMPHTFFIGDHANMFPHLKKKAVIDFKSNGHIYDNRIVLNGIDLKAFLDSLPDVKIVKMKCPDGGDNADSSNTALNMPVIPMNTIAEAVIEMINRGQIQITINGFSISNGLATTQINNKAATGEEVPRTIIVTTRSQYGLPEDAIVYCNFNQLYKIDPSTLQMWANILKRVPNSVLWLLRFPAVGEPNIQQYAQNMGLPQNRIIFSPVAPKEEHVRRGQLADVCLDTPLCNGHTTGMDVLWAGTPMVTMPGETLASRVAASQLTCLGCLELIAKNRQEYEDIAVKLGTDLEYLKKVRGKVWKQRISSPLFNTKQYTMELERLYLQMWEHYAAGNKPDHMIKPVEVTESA
# [3] = system: HTN-BRD4 covalently linked to OGTAC-1
# HTN-BRD4 and 0tfOGT = biological target: T2, HTN-BRD4 and 0tfOGT (Homo sapiens, UniProt O60885+P62942, F37V); assay: Washout / reversibility study, HTN-BRD4:0tfOGT; type: cell-based; conditions: AP1867 50 μM after OGTAC-4 500 nM 4 h
# T2 construct: HaloTag fragment; 0TPR(463-1046)-; expressed in transfected cells; host or cells: HEK293T
# Experimental: FIGS. 7A-7E: Specificity and reversibility of OGTAC strategy. […] (B), Constructs of fOGT with 13.5 (rounded to 13) TPR and 0TPR-fOGT (0tfOGT). (C). […] (D), Dose-dependent O-GlcNAcylation profile of HTN-BRD4 by OGTAC-4 treatment. HEK293T cells expressing HTN-BRD4:0tfOGT=1:0.05 were treated with an increasing concentration of OGTAC-4 for 4 h. Then, the O-GlcNAcylation level of HTN-BRD4 was assessed by immunoblot after IP using BRD4 antibody. All quantifications are shown as mean±s.e.m. of n=3 biologically independent experiments. (E), Reversible effect of OGTAC-4 on HTN-BRD4 can be achieved by addition of AP1867. HEK293T cells expressing HTN-BRD4:0tfOGT=1:0.05 were pretreated with OGTAC-4 (500 nM) or DMSO for 4 h, and culturing media were replaced by fresh media with DMSO or AP1867 (50 μM) for the indicated time. The quantifications in right panel were conducted by the normalizing the fold-change (OGTAC-4/DMSO) for each post-washout time point to the value of 4 h pre-treatment. All quantifications are shown as mean±s.e.m. of 3 independent biological repeats. Statistical significance was calculated with ordinary one-way ANOVA comparing samples with different transfection conditions or OGTAC-treatment. ns, p≥0.05; *p<0.05; **p<0.01; ***p<0.001; ****p<0.0001.
# To assess the potential application of our OGTAC strategy in downstream biological studies, we investigated the reversibility of OGTACs. […] Additionally. the O-GlcNAc level of BRD4 returned to baseline after 6 hours of AP1867 treatment, confirming the reversibility of the induction effect (FIG. 7E).
# For each IP reaction, 2.2×10^6 HEK293T cells were seed in 10 cm dish. After cells attached, transfection reagents and plasmids were prepared and added in DMEM. After 24 h transfection, media were replaced by fresh warm complete media with DMSO or probes. For washout study, after 4 h treatment, media with DMSO or OGTAC-4 (500 nM) were replaced by fresh media with DMSO or AP1867 (50 μM) for further incubation. After certain time of OGTACs treatment, cells were collected by cold PBS and lysed by 200 μL complete IP lysis buffer. […]
# FKBP12^F36V = FKBP12^F36V (Homo sapiens, UniProt P62942, F37V); conditions: cited from earlier work
# Sequence of FKBP12^F36V (P62942 whole entry F37V): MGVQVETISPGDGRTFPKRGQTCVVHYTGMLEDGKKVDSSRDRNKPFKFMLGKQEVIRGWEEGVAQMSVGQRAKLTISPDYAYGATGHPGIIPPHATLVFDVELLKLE
# T2 sequence (P62942 whole entry F37V, stated change not applied, other chains not shown, the tested form may be a part): as the sequence (P62942 whole entry F37V) above
compound,measurement,setting,value
"CN(C)c1ccc2c(-c3cc(C(=O)NCCOCCOCCCCCCCl)ccc3C(=O)[O-])c3ccc(=[N+](C)C)cc-3oc2c1 [rhodamine ligand, 4-((2-(2-((6-chlorohexyl)oxy)ethoxy)ethyl)carbamoyl)-2-(6-(dimethylamino)-3-(dimethyliminio)-3H-xanthen-9-yl)benzoate, reference compound]",effect of competitor co-treatment on OGTAC-1 induced HTN-CK2α O-GlcNAcylation,HTN-CK2α [1],abolished the O-GlcNAcylation inducing effects
"CCCCCCOCCOCCNC(=O)COc1cccc([C@@H](CCc2ccc(OC)c(OC)c2)OC(=O)[C@@H]2CCCCN2C(=O)[C@@H](CC)c2cc(OC)c(OC)c(OC)c2)c1 [OGTAC-1H, (R)-3-(3,4-dimethoxyphenyl)-1-(3-(2-((2-(2-(hexyloxy)ethoxy)ethyl)amino)-2-oxoethoxy)phenyl)propyl(S)-1-((S)-2-(3,4,5-trimethoxyphenyl)butanoyl)piperidine-2-carboxylate]",recruitment of 0tfOGT to HTN-CK2α,HTN-CK2α [2],unable to recruit 0tfOGT to HTN-CK2α
FKBP12^F36V fused-OGT,"RL2 signal of BRD4 (O-GlcNAcylation of HTN-BRD4, IP-immunoblot) after 2 h of OGTAC-1 640 nM",[3],2.5-fold increase at 2 h
same,"RL2 signal of BRD4 (O-GlcNAcylation of HTN-BRD4, IP-immunoblot) after 4 h of OGTAC-1 640 nM",[3],further escalated to around 2.8-fold at 4 h
"CC[C@H](C(=O)N1CCCC[C@H]1C(=O)O[C@H](CCc1ccc(OC)c(OC)c1)c1cccc(OCC(=O)O)c1)c1cc(OC)c(OC)c(OC)c1 [AP1867, 2-[3-[(1R)-3-(3,4-dimethoxyphenyl)-1-[(2S)-1-[(2S)-2-(3,4,5-trimethoxyphenyl)butanoyl]piperidine-2-carbonyl]oxy-propyl]phenoxy]acetic acid]",effect of competitor co-treatment on OGTAC-1 induced HTN-CK2α O-GlcNAcylation,HTN-CK2α [1],abolished the O-GlcNAcylation inducing effects
same,time for O-GlcNAc level of BRD4 to return to baseline,HTN-BRD4 and 0tfOGT,6 h
same,time to marked decrease in ternary complex formation,HTN-BRD4 and 0tfOGT,≤ 2 h
same,Kd,FKBP12^F36V,1.8 nM
